Assays:
Type in all cases: physicochemical
[1] = Comparative photostability of thin film under UV-B irradiation (Q-UV Accelerated Weathering Tester); conditions: UV-B (1 MED/h), thin film with 0.1% PVP-VA on glass plate, Example 3 1%, Incroquat 283 1%, HP610 0.1%
Description: (§1) The photostability of compounds of the present invention as well as existing commercial cationic sunscreens is tested according to the procedure described below: • Photostability: Comparative Photostability of Example 3, Incroquat® 283 and Escalol® HP610
(§2) Three products [Example 3 (1%), Incroquat 283 (1%) and HP610 (0.1%)] were tested for their photostability by dissolving separately in water or ethanol-water solution containing 0.1% Poly(vinylpyrrolidone-vinyl acetate) copolymer (PVP-VA S630 from ISP). Air drying on a glass plate for one hour gave a thin film, which were irradiated under UV A (2 MED/h) and UV B (1 MED/h) light separately over an 8 h period in a Q-UV Accelerated Weathering Tester. Photodegradation was calculated from the decrease in the maximum absorption of the respective products. The results are illustrated in the Tables 1 and 2.

UV absorption maximum = conditions: EtOH:water—70%:30%
Description: The mass was degassed for one hour at 90-95 deg. C. under vacuum. The yield obtained is about 85%. […] A 50% solution in water was prepared for ease of handling.

Solubility = conditions: for solubility in water: water / aqueous solution
[2] = Comparative photostability of thin film under UV-A irradiation (Q-UV Accelerated Weathering Tester); conditions: UV-A (2 MED/h), thin film with 0.1% PVP-VA on glass plate, Example 3 1%, Incroquat 283 1%, HP610 0.1%
Description: as §1, §2

Row | % Product Retained After 1 hr [1] [%] | % Product Retained After 2 hr [1] [%] | % Product Retained After Initial [1] [%] | λmax (UV absorption maximum) [nm] | solubility in water (Solubility) | % Product Retained After 2 hr [2] [%] | % Product Retained After 4 hr [2] [%] | % Product Retained After 6 hr [2] [%] | % Product Retained After Initial [2] [%] | maximal concentration reached in solution (Solubility; aqueous-ethanolic solution (30:70%)) [%] | Compound
1 | 96 | 93 | 100 | 301 | soluble in water | 98 | 97 | 94 | 100 |  | Bis-N-[3(N,N-dimethylamino)propyl]-3,4,5-trimethoxy benzylidene malonamide bis ethylsulfate [Example 3]
2 | 33 | 28 | 100 |  | very poor solubility | 50 | 40 | 30 | 100 | 0.25 | CCCCCCCCCCCC[N+](C)(C)CCCNC(=O)c1ccc(N(C)C)cc1.Cc1ccc(S(=O)(=O)[O-])cc1 [Escalol HP ®-610]

Source: patent publication US6936735B2, “Photostable cationic organic sunscreen compounds and compositions obtained therefrom” (EMD Chemicals, Inc., priority 2002, dated 2005)
